Reference: patent US8841312B2, “Fused pyridine, pyrimidine and triazine compounds as cell cycle inhibitors” (Amgen Inc., priority 2007, dated 2014)

Molecular target: Cdk4/CyclinD1 (Homo sapiens (Human), UniProt P11802)
Assay: Cdk4 kinase inhibition assay with recombinant Cdk4/CyclinD1, Rb substrate, [33P]-ATP filter plate
Format: biochemical
Conditions: 25 μM ATP, read-out: Cdk 4 IC50
How it was run: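 Recombinant Cdk4/CyclinD1 or Cdk6/CyclinD3 phosphorylated Rb protein with [33P]-ATP for 1 h at room temperature. Protein was TCA-precipitated on filter plates and bound radioactivity counted. IC50 by nonlinear regression.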

Chain of Cdk4/CyclinD1 (P11802 whole entry): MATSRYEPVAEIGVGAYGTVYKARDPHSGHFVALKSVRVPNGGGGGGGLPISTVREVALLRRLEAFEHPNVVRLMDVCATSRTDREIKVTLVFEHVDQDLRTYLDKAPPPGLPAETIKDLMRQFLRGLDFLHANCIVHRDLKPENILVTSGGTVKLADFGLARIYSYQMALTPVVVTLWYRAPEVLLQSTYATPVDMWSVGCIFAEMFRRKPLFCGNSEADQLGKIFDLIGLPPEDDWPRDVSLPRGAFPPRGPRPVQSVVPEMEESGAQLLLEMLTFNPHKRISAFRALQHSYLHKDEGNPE
Chain of Cdk4/CyclinD1 (P24385 whole entry partner): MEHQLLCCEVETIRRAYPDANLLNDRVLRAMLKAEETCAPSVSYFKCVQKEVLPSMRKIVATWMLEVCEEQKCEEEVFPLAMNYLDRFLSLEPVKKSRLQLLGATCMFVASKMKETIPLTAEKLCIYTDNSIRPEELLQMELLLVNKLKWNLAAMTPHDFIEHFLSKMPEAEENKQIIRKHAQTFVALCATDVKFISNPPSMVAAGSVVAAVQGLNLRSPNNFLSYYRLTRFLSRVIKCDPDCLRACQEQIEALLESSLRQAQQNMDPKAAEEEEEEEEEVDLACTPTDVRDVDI

Row | Structure (SMILES) | IC50 [nM]
1 | C[C@H](CO)n1c2cnccc2c2cnc(Nc3ccc(N4CCNC(C)(C)C4)cn3)nc21 [Example 383] | 62
2 | C[C@H](CO)n1c2cnccc2c2cnc(Nc3ccc(N4CCNC(C)(C)C4)nn3)nc21 [Example 388] | 218
3 | NC1CCN(c2nc(Nc3ncc4c5ccncc5n(C5CCCC5)c4n3)ns2)CC1 [Example 131, 4-Amino-1-(3-((9-cyclopentyl-9H-pyrido[4′,3′:4,5]pyrrolo[2,3-d]pyrimidin-2-yl)amino)-5-1,2,4-thiadiazolyl)-piperidine] | 174
4 | CC[C@H](C)n1c2cnccc2c2cnc(Nc3ccc(N4CCN[C@@H](C)C4)cn3)nc21 [Example 329] | 500
5 | O[C@@H]1CCN(c2ccc(Nc3ncc4c5ccncc5n([C@H]5CCC[C@H]5O)c4n3)nc2)C1 [Example 371] | 123
6 | CC1(C)CN(c2ccc(Nc3ncc4c5ccncc5n([C@H]5CCC[C@@H]5O)c4n3)nc2)CCN1 [Example 402] | 175
7 | NC(=O)CC1CCN(c2ccc(Nc3ncc4c5ccnc(F)c5n(C5CCCC5)c4n3)nc2)CC1 [Example 176, 2-(1-(6-((9-Cyclopentyl-8-fluoro-9H-pyrido[4′,3′:4,5]pyrrolo[2,3-d]pyrimidin-2-yl)amino)-3-pyridinyl)-4-piperidinyl)acetamide] | 930
8 | O[C@@H]1CCN(c2ccc(Nc3ncc4c5ccncc5n([C@H]5CCOC5)c4n3)nc2)C1 [Example 396] | 238
9 | C[C@@H](O)Cn1c2cnccc2c2cnc(Nc3ccc(N4CCNC(C)(C)C4)nn3)nc21 [Example 418] | 112
10 | C[C@H](CO)n1c2cnccc2c2cnc(Nc3ccc(N4CCN[C@@H](C)C4)cn3)nc21 [Example 381] | 2000
11 | C[C@H]1CN(c2ccc(Nc3ncc4c5ccncc5n([C@@H]5CCOC5)c4n3)nn2)CCN1 [Example 429] | 92
12 | CC1(C)CN(c2ccc(Nc3ncc4c5ccncc5n([C@H]5CCC[C@H]5O)c4n3)nc2)CCN1 [Example 360] | 66
13 | C[C@H]1CN(c2ccc(Nc3ncc4c5ccncc5n([C@@H](C)CO)c4n3)nn2)CCN1 [Example 377] | 73
14 | CNC1CCN(c2ccc(Nc3ncc4c5ccncc5n(C[C@@H](C)O)c4n3)nn2)CC1 [Example 417] | 151
15 | c1cc2c3cnc(Nc4nsc(N5CCNCC5)n4)nc3n(C3CCCC3)c2cn1 [Example 132] | 302
16 | C[C@H](CO)n1c2cnccc2c2cnc(Nc3ccc(N4CCC(N(C)C)CC4)nn3)nc21 [Example 385] | 216

The next compounds have a lower IC50 than those just listed; values first:

Row | IC50 [nM] | Structure (SMILES)
17 | 21 | CC1(C)CN(c2ccc(Nc3ncc4c5ccncc5n([C@@H]5CCOC5)c4n3)nn2)CCN1 [Example 430]
18 | 14 | O=S1(=O)CCC(O)(c2ccc(Nc3ncc4c5ccncc5n(C5CCCC5)c4n3)nc2)CC1 [Example 263, 4-(6-((9-cyclopentyl-9H-pyrido[4′,3′:4,5]pyrrolo[2,3-d]pyrimidin-2-yl)amino)-3-pyridinyl)tetrahydro-2H-thiopyran-4-ol 1,1-dioxide]
19 | 37 | O=C(O)CC1CCN(c2ccc(Nc3ncc4c5ccnc(F)c5n(C5CCCC5)c4n3)nc2)CC1 [Example 175, (1-(6-((9-Cyclopentyl-8-fluoro-9H-pyrido[4′,3′:4,5]pyrrolo[2,3-d]pyrimidin-2-yl)amino)-3-pyridinyl)-4-piperidinyl)acetic acid]
20 | 4.9 | c1cc2c3cnc(Nc4ccc(NCC5CCCCN5)nn4)nc3n(C3CCCC3)c2cn1 (centres unmarked) [Example 99]
21 | 4.2 | OC[C@H]1CN(c2ccc(Nc3ncc4c5ccncc5n(C5CCCC5)c4n3)nc2)CCN1 [Example 197, ((2R)-4-(6-((9-Cyclopentyl-9H-pyrido[4′,3′:4,5]pyrrolo[2,3-d]pyrimidin-2-yl)amino)-3-pyridinyl)-2-piperazinyl)methanol]
22 | 13 | CN(CCO)C1CCN(c2ccc(Nc3ncc4c5ccnc(F)c5n(C5CCCC5)c4n3)nc2)CC1 [Example 195, 2-((1-(6-((9-Cyclopentyl-8-fluoro-9H-pyrido[4′,3′:4,5]pyrrolo[2,3-d]pyrimidin-2-yl)amino)-3-pyridinyl)-4-piperidinyl)(methyl)amino)ethanol]
23 | 2 | C[C@H]1CN(c2ccc(Nc3ncc4c5ccncc5n(C5CCCC5)c4n3)nc2)CCN1 [Example 62]
24 | 2.8 | CCN(CC)C1CCN(c2ccc(Nc3ncc4c5ccnc(O)c5n(C5CCCC5)c4n3)nn2)CC1 [Example 282, 9-cyclopentyl-2-((6-(4-(diethylamino)-1-piperidinyl)-3-pyridazinyl)amino)-9H-pyrido[4′,3′:4,5]pyrrolo[2,3-d]pyrimidin-8-ol]
25 | 4.4 | c1cc2c3cnc(Nc4ccc(N5CCC6(CC5)COCCN6)nn4)nc3n(C3CCCC3)c2cn1 [Example 249, 9-cyclopentyl-N-(6-(4-oxa-1,9-diazaspiro[5.5]undec-9-yl)-3-pyridazinyl)-9H-pyrido[4′,3″:4,5]pyrrolo[2,3-d]pyrimidin-2-amine]
26 | 2 | NC1CCCN(c2ccc(Nc3ncc4c5ccncc5n(C5CCCC5)c4n3)nn2)C1 (centres unmarked) [Example 116]
27 | 5.6 | N[C@@H]1CCN(c2cnc(Nc3ncc4c5ccncc5n(C5CCCC5)c4n3)cn2)C1 [Example 90]
28 | 12 | CC1CN(c2ccc(Nc3ncc4c5cc[nH]c(=O)c5n(C5CCCC5)c4n3)nn2)CC(C)N1 (centres unmarked) [Example 125]
29 | 45 | CNC1CCN(c2ccc(Nc3ncc4c5ccncc5n([C@@H](C)CO)c4n3)nn2)CC1 [Example 373]
30 | 8.8 | c1cc2c3cnc(Nc4ccc(N[C@H]5CCNC5)nn4)nc3n(C3CCCC3)c2cn1 [Example 92]
31 | 2.5 | OCCN1CCN(c2ccc(Nc3ncc4c5ccnc(F)c5n(C5CCCC5)c4n3)nc2)CC1 [Example 170, 2-(4-(6-((9-Cyclopentyl-8-fluoro-9H-pyrido[4′,3′:4,5]pyrrolo[2,3-d]pyrimidin-2-yl)amino)-3-pyridinyl)-1-piperazinyl)ethanol]
32 | 16 | O=C1COC2(CCN(c3ccc(Nc4ncc5c6ccncc6n(C6CCCC6)c5n4)nn3)CC2)CN1 [Example 250, 9-(6-((9-cyclopentyl-9H-pyrido[4′,3′:4,5]pyrrolo[2,3-d]pyrimidin-2-yl)amino)-3-pyridazinyl)-1-oxa-4,9-diazaspiro[5.5]undecan-3-one]
33 | 4.2 | CC1CN(c2ccc(Nc3ncc4c5ccncc5n(C5CCCC5)c4n3)nn2)CC(C)N1 (centres unmarked) [Example 113]
34 | 10 | COc1nccc2c3cnc(Nc4ccc(N5CCNCC5)cn4)nc3n(C3CCC(C)(C)CC3)c12 [Example 207, 9-(4,4-dimethylcyclohexyl)-8-methoxy-N-(5-(1-piperazinyl)-2-pyridinyl)-9H-pyrido[4′,3′:4,5]pyrrolo[2,3-d]pyrimidin-2-amine]
35 | 35 | C[C@H]1CN(c2ccc(Nc3ncc4c5ccncc5n([C@H]5CCC[C@@H]5O)c4n3)nn2)CCN1 [Example 407]
36 | 13 | O=C(c1ccc(Nc2ncc3c4ccnc(O)c4n(C4CCCC4)c3n2)nc1)N1CCNCC1 [Example 223, 9-cyclopentyl-2-((5-(1-piperazinylcarbonyl)-2-pyridinyl)amino)-9H-pyrido[4′,3′:4,5]pyrrolo[2,3-d]pyrimidin-8-ol]
37 | 5 | CCN(CC)C1CCN(c2ccc(Nc3ncc4c5ccnc(O)c5n(C5CCCC5)c4n3)nc2)CC1 [Example 284, 9-Cyclopentyl-2-((5-(4-(diethylamino)-1-piperidinyl)-2-pyridinyl)amino)-9H-pyrido[4′,3′:4,5]pyrrolo[2,3-d]pyrimidin-8-ol]
38 | 16 | C[C@H]1CN(c2ccc(Nc3ncc4c5cc[nH]c(=O)c5n(C5CCCC5)c4n3)nn2)CCN1 [Example 129]
